Reference: patent US20260083767A1, “SOLID DOSAGE FORM OF A SMALL MOLECULE ANTIVIRAL AND USES THEREOF” (Merck Sharp & Dohme LLC, priority 2022, published 2026)
Where two headings read alike, the source gives them in different places.

Key:
[1] = Aqueous solubility and wettability of Compound A; assay type: physicochemical
Source text: As the levels of Compound A increases in the formulation, the flow properties of the pre-roller compaction powder blend worsens due to the cohesive nature of the material. […] As the levels of Compound A increases in the formulation, the property of the powder blend is dominated by the properties of Compound A, resulting in poor wettability, dispersibility and uniformity in water. Accordingly, the proportion of Compound A in the formulations having desirable properties is limited.

[2] = species not stated; cited from earlier work
[3] = non-human primates; cited from earlier work

Structure (SMILES)	aqueous solubility [1]	wettability in aqueous media ([1]; aqueous media)	oral bioavailability [2]	oral bioavailability [3]
CC(C)C(=O)OC[C@H]1O[C@@H](n2ccc(NO)nc2=O)[C@H](O)[C@@H]1O [Compound A, {(2R,3S,4R,5R)-3,4-dihydroxy-5-[4-(hydroxyimino)-2-oxo-3,4-dihydropyrimidin-1 (2H)-yl]oxolan-2-yl}methyl 2-methylpropanoate]	good	poor	orally bioavailable	
O=c1nc(NO)ccn1[C@@H]1O[C@H](CO)[C@@H](O)[C@H]1O [NHC, 1-((2R,3R,4S,5R)-3,4-dihydroxy-5-(hydroxymethyl)tetrahydrofuran-2-yl)-4-(hydroxyamino)pyrimidin-2 (1H)-one]				limited
